Data on 19 compounds can be found in US8481540B2, “Inhibitors of bruton's tyrosine kinase” (Hoffmann-La Roche Inc., priority 2010, dated 2013).

The test system of the test is B cells in human blood. The test is described as follows: Inhibition of B cell activation in whole blood measured by CD69 expression. Conditions: CD69-positive, CD20-positive cells after anti-IgM stimulation, human whole blood, 20 hours, read-out: Human Whole Blood. Format: cell-based. The method, then:
Inhibition of B Cell Activation in Whole Blood Measured by CD69 Expression
A procedure to test the ability of Btk inhibitors to suppress B cell receptor-mediated activation of B cells in human blood is as follows:
Human whole blood (HWB) is obtained from healthy volunteers, with the following restrictions: 24 hr drug-free, non-smokers. Blood is collected by venipuncture into Vacutainer tubes anticoagulated with sodium heparin. Test compounds are diluted to […] the desired starting drug concentration in PBS (20×), followed by three-fold serial dilutions in 10% DMSO in PBS to produce a nine point dose-response curve. 5.5 μl of each compound dilution is added in duplicate to a 2 ml96-well V bottom plate (Analytical Sales and Services, #59623-23); 5.5 μl of 10% DMSO in PBS is added to control and no-stimulus wells. HWB (100 μl) is added to each well, and after mixing the plates are incubated at 37 C, 5% CO2, 100% humidity for 30 minutes. Goat F(ab′)2 anti-human IgM (Southern Biotech, #2022-14) (10 μl of a […] solution, 50 μg/ml final concentration) is added to each well (except the no-stimulus wells) with mixing and the plates are incubated for an additional 20 hours.
At the end of the 20 hour incubation, samples are incubated with florescent-probe-labeled anti-bodies (15 μl PE Mouse anti-Human CD20, BD Pharmingen, #555623, and/or 20 ul APC Mouse anti-Human CD69, BD Pharmingen #555533) for 30 minutes, at 37 C, 5% CO2, 100% humidity. Included are induced control, unstained and single stains for compensation adjustments and initial voltage settings. Samples are then lysed with 1 ml of 1× Pharmingen Lyse Buffer (BD Pharmingen #555899), and plates are centrifuged at 1800 rpm for 5 minutes. Supernatants are removed via suction and the remaining pellets are lysed again with another 1 ml of 1× Pharmingen Lyse Buffer, and plates are spun down as before. Supernatants are aspirated and remaining pellets are washed in FACs buffer (PBS+1% FBS). After a final spin, the supernantants are removed and pellets are resuspended in 180 μl of FACs buffer. Samples are transferred to a 96 well plate suitable to be run on the HTS 96 well system on the BD LSR II flow cytometer.
Using appropriate excitation and emission wavelengths for the fluorophores used, data are acquired and percent positive cell values are obtained using Cell Quest Software. Results are initially analyzed by FACS analysis software (Flow Jo). […] The IC50 values are calculated using XLfit software version 3, equation 201.
Representative compound data for this assay are listed below in Table II.
`CN1CC[C@H](c2ccc(Nc3cc(-c4cccc(-n5ncc6cc(C(C)(C)C)cc(F)c6c5=O)c4CO)nn(C)c3=O)nc2)C1` [I-33, 6-tert-Butyl-8-fluoro-2-(2-hydroxymethyl-3-{1-methyl-5-[5-((R)-1-methyl-pyrrolidin-3-yl)-pyridin-2-ylamino]-6-oxo-1,6-dihydro-pyridazin-3-yl}-phenyl)-2H-phthalazin-1-one]: the IC50 came to 2 nM.

Turning to `CN1CCN(c2ccc(Nc3cc(-c4cccc(-n5ncc6cc(C(C)(C)C)cc(F)c6c5=O)c4CO)nn(C)c3=O)nc2)CC1` [I-56, 6-tert-Butyl-8-fluoro-2-(2-hydroxymethyl-3-{1-methyl-5-[5-(4-methyl-piperazin-1-yl)-pyridin-2-ylamino]-6-oxo-1,6-dihydro-pyridazin-3-yl}-phenyl)-2H-phthalazin-1-one], the IC50 is 17 nM.

Regarding `CCN1CCC(c2ccc(Nc3cc(-c4cccc(-n5ncc6cc(C(C)(C)C)cc(F)c6c5=O)c4CO)nn(C)c3=O)nc2)CC1` [I-30, 6-tert-Butyl-2-{3-[5-(1′-ethyl-1′,2′,3′,4′,5′,6′-hexahydro-[3,4]bipyridinyl-6-ylamino)-1-methyl-6-oxo-1,6-dihydro-pyridazin-3-yl]-2-hydroxymethyl-phenyl}-8-fluoro-2H-phthalazin-1-one], the IC50 came to 4 nM.

Consider `Cn1nc(-c2cccc(-n3ncc4cc(C(C)(C)C)cc(F)c4c3=O)c2CO)cc(Nc2ccc(C(=O)N3CCC(O)CC3)cn2)c1=O` [I-55, 6-tert-butyl-8-fluoro-2-(2-(hydroxymethyl)-3-(5-(5-(4-hydroxypiperidine-1-carbonyl)pyridin-2-ylamino)-1-methyl-6-oxo-1,6-dihydropyridazin-3-yl)phenyl)phthalazin-1(2H)-one], for which the IC50 was 41 nM.

For the compound `COC[C@@H](O)COc1ccc(Nc2cc(-c3cccc(-n4ncc5cc(C(C)(C)C)cc(F)c5c4=O)c3CO)nn(C)c2=O)nc1` [I-17], the IC50 was 41 nM.

As for `Cn1nc(Nc2cc(-c3cccc(-n4ccc5cc(C(C)(C)C#N)cc(F)c5c4=O)c3CO)nn(C)c2=O)cc1CN1CCC1` [I-72, 2-(2-{3-[5-(5-Azetidin-1-ylmethyl-1-methyl-1H-pyrazol-3-ylamino)-1-methyl-6-oxo-1,6-dihydro-pyridazin-3-yl]-2-hydroxymethyl-phenyl}-8-fluoro-1-oxo-1,2-dihydro-isoquinolin-6-yl)-2-methyl-propionitrile], the IC50 was determined as 56 nM.

With `CN1C[C@@H]2C[C@H]1CN2c1cnc(Nc2cc(-c3cccc(-n4ncc5cc(C(C)(C)C)cc(F)c5c4=O)c3CO)nn(C)c2=O)cn1` [I-88, 6-tert-Butyl-8-fluoro-2-(2-hydroxymethyl-3-{1-methyl-5-[5((1S,4S)-5-methyl-2,5-diaza-bicyclo[2.2.1]hept-2-yl)-pyrazin-2-ylamino]-6-oxo-1,6-dihydro-pyridazin-3-yl}-phenyl)-2H-phthalazin-1-one], the IC50 worked out at 203 nM.

For `Cn1nc(-c2cccc(-n3ccc4cc(C(C)(C)C#N)cc(F)c4c3=O)c2CO)cc(Nc2ccc(C(=O)N3CCOCC3)cn2)c1=O` [I-15, 2-[8-fluoro-2-(2-hydroxymethyl-3-{1-methyl-5-[5-(morpholine-4-carbonyl)-pyridin-2-ylamino]-6-oxo-1,6-dihydro-pyridazin-3-yl}-phenyl)-1-oxo-1,2-dihydro-isoquinolin-6-yl]-2-methyl-propionitrile], the IC50 worked out at 163 nM.

`Cn1nc(-c2cccc(-n3ncc4cc(C(C)(C)C)cc(F)c4c3=O)c2CO)cc(Nc2ccc(C3CCN(CC(F)(F)F)CC3)cn2)c1=O` [I-90, 6-tert-butyl-8-fluoro-2-(2-hydroxymethyl-3-{1-methyl-6-oxo-5-[1′-(2,2,2-trifluoro-ethyl)-1′,2′,3′,4′,5′,6′-hexahydro-[3,4′]bipyridinyl-6-ylamino]-1,6-dihydro-pyridazin-3-yl}-phenyl)-2H-phthalazin-1-one]: the IC50 came to 340 nM.

As for `Cn1nc(-c2cccc(N3CCc4cc(C(C)(C)C#N)cc(F)c4C3=O)c2CO)cc(Nc2ccc(OC(C)(C)CN3CCC3)cn2)c1=O` [I-78, 2-[2-(3-{5-[5-(2-azetidin-1-yl-1,1-dimethyl-ethoxy)-pyridin-2-ylamino]-1-methyl-6-oxo-1,6-dihydro-pyridazin-3-yl}-2-hydroxymethyl-phenyl)-8-fluoro-1-oxo-1,2,3,4-tetrahydro-isoquinolin-6-yl]-2-methyl-propionitrile], the IC50 came out at 84 nM.

As for `Cn1nc(-c2cccc(-n3ccc4cc(C(C)(C)C#N)cc(F)c4c3=O)c2CO)cc(Nc2cc3n(n2)CCN(C2COC2)C3)c1=O` [I-79, 2-(8-Fluoro-2-{2-hydroxymethyl-3-[1-methyl-5-(5-oxetan-3-yl-4,5,6,7-tetrahydro-pyrazolo[1,5-a]pyrazin-2-ylamino)-6-oxo-1,6-dihydro-pyridazin-3-yl]-phenyl}-1-oxo-1,2-dihydro-isoquinolin-6-yl)-2-methyl-propionitrile], the IC50 came to 60 nM.

Consider `Cn1nc(-c2cccc(-n3ncc4cc(C(C)(C)C)cc(F)c4c3=O)c2CO)cc(Nc2ccc(C(=O)N3CCS(=O)(=O)CC3)cn2)c1=O` [I-48, 6-tert-Butyl-2-(3-{5-[5-(1,1-dioxo-1λ^6-thiomorpholine-4-carbonyl)-pyridin-2-ylamino]-1-methyl-6-oxo-1,6-dihydro-pyridazin-3-yl}-2-hydroxymethyl-phenyl)-8-fluoro-2H-phthalazin-1-one], for which the IC50 was determined as 185 nM.

Take `CC(C)S(=O)(=O)c1ccc(Nc2cc(-c3cccc(-n4ncc5cc(C(C)(C)C)cc(F)c5c4=O)c3CO)nn(C)c2=O)nc1` [I-24, 6-tert-Butyl-8-fluoro-2-(2-hydroxymethyl-3-{1-methyl-6-oxo-5-[5-(propane-2-sulfonyl)-pyridin-2-ylamino]-1,6-dihydro-pyridazin-3-yl}-phenyl)-2H-phthalazin-1-one]: the IC50 stood at 116 nM.

Take `CN1CC[C@@H](c2ccc(Nc3cc(-c4cccc(-n5ncc6cc(C(C)(C)C)cc(F)c6c5=O)c4CO)nn(C)c3=O)nc2)C1` [I-32, 6-tert-Butyl-8-fluoro-2-(2-hydroxymethyl-3-[1-methyl-5-[5-((S)-1-methyl-pyrrolidin-3-yl)-pyridin-2-ylamino]-6-oxo-1,6-dihydro-pyridazin-3-yl]-phenyl)-2H-phthalazin-1-one]: the IC50 was 23 nM.

As to `Cn1nc(-c2cccc(-n3ccc4cc(C(C)(C)CF)cc(F)c4c3=O)c2CO)cc(Nc2ccc(C(=O)N3CCOCC3)cn2)c1=O` [I-87, 8-Fluoro-6-(2-fluoro-1,1-dimethyl-ethyl)-2-(2-hydroxymethyl-3-{1-methyl-5-[5-(morpholine-4-carbonyl)-pyridin-2-ylamino]-6-oxo-1,6-dihydro-pyridazin-3-yl}-phenyl)-2H-isoquinolin-1-one], the IC50 is 455 nM.

Turning to `Cn1nc(-c2cccc(-n3ncc4cc(C(C)(C)C)cc(F)c4c3=O)c2CO)cc(Nc2ccc(C(=O)N3CCC3)cn2)c1=O` [I-47, 2-(3-{5-[5-(Azetidine-1-carbonyl)-pyridin-2-ylamino]-1-methyl-6-oxo-1,6-dihydro-pyridazin-3-yl}-2-hydroxymethyl-phenyl)-6-tert-butyl-8-fluoro-2H-phthalazin-1-one], the IC50 came out at 76 nM.

Turning to `CN1CCN(Cc2ccc(Nc3cc(-c4cccc(-n5ncc6cc(C(C)(C)C)cc(F)c6c5=O)c4CO)nn(C)c3=O)nc2)CC1` [I-41, 6-tert-Butyl-8-fluoro-2-(2-hydroxymethyl-3-{1-methyl-5-[5-(4-methyl-piperazin-1-ylmethyl)-pyridin-2-ylamino]-6-oxo-1,6-dihydro-pyridazin-3-yl}-phenyl)-2H-phthalazin-1-one], the IC50 is 15 nM.

For `Cn1nc(-c2cccc(-n3ncc4cc(C(C)(C)C)cc(F)c4c3=O)c2CO)cc(Nc2ccc(C3CCNCC3)cn2)c1=O` [I-61, 6-tert-butyl-8-fluoro-2-(2-(hydroxymethyl)-3-(1-methyl-6-oxo-5-(5-(piperidin-4-yl)pyridin-2-ylamino)-1,6-dihydropyridazin-3-yl)phenyl)phthalazin-1(2H)-one], the IC50 was found to be 74 nM.

On to `CN(C)CCNC(=O)c1ccc(Nc2cc(-c3cccc(-n4ncc5cc(C(C)(C)C)cc(F)c5c4=O)c3CO)nn(C)c2=O)nc1` [I-51, 6-(6-(3-(6-tert-butyl-8-fluoro-1-oxophthalazin-2(1H)-yl)-2-(hydroxymethyl)phenyl)-2-methyl-3-oxo-2,3-dihydropyridazin-4-ylamino)-N-(2-(dimethylamino)ethyl)nicotinamide], for which the IC50 was determined as 19 nM.
